Results as given in patent US12686692B2, “KRas G12D inhibitors” (Mirati Therapeutics, Inc., priority 2020, dated 2026).

Molecular target: KRas G12D (Homo sapiens, UniProt P01116, G12D)
Test: KRas G12D Binding Assay (TR-FRET displacement of labeled tracer)
Set-up: corresponding to amino acids 1:169, produced at Array BioPharma; biotin (protein is biotinylated)
Conditions: TR-FRET displacement of Cy5 labelled tracer, biotinylated GDP-loaded KRAS G12D (aa 1:169), 60 minute incubation at 22° C.
Method: This Example illustrates that exemplary compounds of the present invention bind to KRas G12D and are capable of displacing a labeled tracer ligand occupying the KRas G12D binding site.
The ability of a compound to bind to KRAS G12D was measured using a TR-FRET displacement assay. Biotinylated GDP-loaded recombinant human KRAS G12D (corresponding to amino acids 1:169, produced at Array BioPharma) was incubated with a custom-made Cy5 labelled tracer, europium labelled streptavidin and compound (2% DMSO final) in buffer (50 mM HEPES [pH 7.5], 5 mM MgCl2, 0.005% Tween-20 & 1 mM DTT). After a 60 minute incubation at 22° C., the reaction was measured using a PerkinElmer EnVision multimode plate reader via TR-FRET dual wavelength detection, and the percent of control (POC) calculated using a ratiometric emission factor. […] The POC values were fit to a 4-parameter logistic curve and the IC50 value was determined as the concentration where the curve crosses 50 POC.

Sequence of KRas G12D (P01116 1-169 isoform P01116-2 G12D): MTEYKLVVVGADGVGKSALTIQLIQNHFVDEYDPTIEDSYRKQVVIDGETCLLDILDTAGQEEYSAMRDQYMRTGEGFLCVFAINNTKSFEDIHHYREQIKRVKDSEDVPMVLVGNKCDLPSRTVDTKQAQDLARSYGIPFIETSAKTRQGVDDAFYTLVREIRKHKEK

Compound | IC50 [nM]
COC[C@H]1C[C@@H]2CN(c3nc(OC[C@@H]4CCCN4C)nc4c3CCN(c3cccc5cccc(Cl)c35)C4)C[C@H]1N2 (single isomer, unassigned) [Example 94] | 852
CCc1cccc2cccc(N3CCc4c(nc(OC[C@@]56CCCN5C[C@H](F)C6)nc4C4CC5CCC(N5)C4O)C3)c12 (stereo in doubt) [Example 123, (1S,3R,5R)-3-(7-(8-ethylnaphthalen-1-yl)-2-(((2R,7aS)-2-fluorotetrahydro-1H-pyrrolizin-7a(5H)-yl)methoxy)-5,6,7,8-tetrahydropyrido[3,4-d]pyrimidin-4-yl)-8-azabicyclo[3.2.1]octan-2-ol] | 508
Clc1ccc2cccc(N3CCc4c(nc(OCC56CCCN5CCC6)nc4N4C[C@H]5CC[C@@H](C4)N5)C3)c2c1Cl [Example 12, 4-((1R,5S)-3,8-diazabicyclo[3.2.1]octan-3-yl)-7-(7,8-dichloronaphthalen-1-yl)-2-((tetrahydro-1H-pyrrolizin-7a(5H)-yl)methoxy)-5,6,7,8-tetrahydropyrido[3,4-d]pyrimidine] | 345
CN1CCC[C@H]1COc1nc2c(c(N3C[C@H]4CC[C@@H](C3)N4)n1)CCN(c1cccc3c(Cl)cccc13)C2 [Example 15, 4-((1R,5S)-3,8-diazabicyclo[3.2.1]octan-3-yl)-7-(5-chloronaphthalen-1-yl)-2-(((S)-1-methylpyrrolidin-2-yl)methoxy)-5,6,7,8-tetrahydropyrido[3,4-d]pyrimidine] | 7900
CN1CCC[C@H]1COc1nc2c(c(N3C[C@H]4CC[C@@H](C3)N4)n1)CCN(c1cccc3c(F)cccc13)C2 [Example 16, 4-((1R,5S)-3,8-diazabicyclo[3.2.1]octan-3-yl)-7-(5-fluoronaphthalen-1-yl)-2-(((S)-1-methylpyrrolidin-2-yl)methoxy)-5,6,7,8-tetrahydropyrido[3,4-d]pyrimidine] | 1760
CNC(=O)OC[C@H]1CCC2(COc3nc4c(c(N5CC6CCC(C5)N6)n3)CCN(c3cccc5cccc(C)c35)C4)CCCN12 (stereo partly drawn) [Example 21, (7a-(((4-((1R,5S)-3,8-diazabicyclo[3.2.1]octan-3-yl)-7-(8-methylnaphthalen-1-yl)-5,6,7,8-tetrahydropyrido[3,4-d]pyrimidin-2-yl)oxy)methyl)hexahydro-1H-pyrrolizin-3-yl)methyl methylcarbamate (trans enantiomers)] | 12.3
CC(C)c1ccccc1N1CCc2c(nc(OCC34CCCN3[C@@H](COC(=O)N(C)C)CC4)nc2N2CC3CCC(C2)N3)C1 (stereo partly drawn) [Example 32, (7a-(((4-((1R,5S)-3,8-diazabicyclo[3.2.1]octan-3-yl)-7-(2-isopropylphenyl)-5,6,7,8-tetrahydropyrido[3,4-d]pyrimidin-2-yl)oxy)methyl)hexahydro-1H-pyrrolizin-3-yl)methyl dimethylcarbamate (trans enantiomers)] | 1170
CN1CCC[C@H]1COc1nc2c(c(N3C[C@H]4C[C@@H](CCN)[C@@H](C3)N4)n1)CCN(c1cccc3cccc(Cl)c13)C2 [Example 39, 2-((1R,5S,6R)-3-(7-(8-chloronaphthalen-1-yl)-2-(((S)-1-methylpyrrolidin-2-yl)methoxy)-5,6,7,8-tetrahydropyrido[3,4-d]pyrimidin-4-yl)-3,8-diazabicyclo[3.2.1]octan-6-yl)ethan-1-amine] | 2690
CN1CCC[C@H]1COc1nc2c(c(N3CC4CC(O)(C(F)F)C(C3)N4)n1)CCN(c1cccc3cccc(Cl)c13)C2 (stereo partly drawn) [Example 41, 3-(7-(8-chloronaphthalen-1-yl)-2-(((S)-1-methylpyrrolidin-2-yl)methoxy)-5,6,7,8-tetrahydropyrido[3,4-d]pyrimidin-4-yl)-6-(difluoromethyl)-3,8-diazabicyclo[3.2.1]octan-6-ol] | 3130
CN1CCC[C@H]1COc1nc2c(c(N3CC4CCC(CC#N)(C3)N4)n1)CCN(c1cccc3cccc(Cl)c13)C2 (stereo partly drawn) [Example 42, 2-(3-(7-(8-chloronaphthalen-1-yl)-2-(((S)-1-methylpyrrolidin-2-yl)methoxy)-5,6,7,8-tetrahydropyrido[3,4-d]pyrimidin-4-yl)-3,8-diazabicyclo[3.2.1]octan-1-yl)acetonitrile] | 1800
CN1CCC[C@H]1COc1nc2c(c(N3C[C@H]4CC[C@@H](C3)N4)n1)CCN(c1nc(N)cc3ccccc13)C2 [Example 60, 1-(4-((1R,5S)-3,8-diazabicyclo[3.2.1]octan-3-yl)-2-(((S)-1-methylpyrrolidin-2-yl)methoxy)-5,8-dihydropyrido[3,4-d]pyrimidin-7(6H)-yl)isoquinolin-3-amine] | > 10000
CCCCc1cccc2cccc(N3CCc4c(nc(OC[C@@H]5CCCN5C)nc4N4C[C@H]5CC[C@@H](C4)N5)C3)c12 [Example 81, 4-((1R,5S)-3,8-diazabicyclo[3.2.1]octan-3-yl)-7-(8-butylnaphthalen-1-yl)-2-(((S)-1-methylpyrrolidin-2-yl)methoxy)-5,6,7,8-tetrahydropyrido[3,4-d]pyrimidine] | 710
CN1CCC[C@H]1COc1nc2c(c(N3C[C@H]4C[C@@H](C#N)[C@@H](C3)N4)n1)CCN(c1cccc3cccc(Cl)c13)C2 [Example 92, (1R,5S,6R)-3-(7-(8-chloronaphthalen-1-yl)-2-(((S)-1-methylpyrrolidin-2-yl)methoxy)-5,6,7,8-tetrahydropyrido[3,4-d]pyrimidin-4-yl)-3,8-diazabicyclo[3.2.1]octane-6-carbonitrile] | 5490
FC1(F)CCc2c(N3CCc4c(nc(OCC56CCCN5CCC6)nc4N4C[C@H]5CC[C@@H](C4)N5)C3)cccc21 [Example 101, 4-((1R,5S)-3,8-diazabicyclo[3.2.1]octan-3-yl)-7-(1,1-difluoro-2,3-dihydro-1H-inden-4-yl)-2-((tetrahydro-1H-pyrrolizin-7a(5H)-yl)methoxy)-5,6,7,8-tetrahydropyrido[3,4-d]pyrimidine] | 2490
c1cc2c(c(N3CCc4c(nc(OCC56CCCN5CCC6)nc4N4C[C@H]5CC[C@@H](C4)N5)C3)c1)C(C1CC1)CC2 (stereo partly drawn) [Example 102, 4-((1R,5S)-3,8-diazabicyclo[3.2.1]octan-3-yl)-7-(3-cyclopropyl-2,3-dihydro-1H-inden-4-yl)-2-((tetrahydro-1H-pyrrolizin-7a(5H)-yl)methoxy)-5,6,7,8-tetrahydropyrido[3,4-d]pyrimidine] | 654
c1cc2c(c(N3CCc4c(nc(OCC56CCCN5CCC6)nc4N4C[C@H]5CC[C@@H](C4)N5)C3)c1)CCC2 [Example 104, 4-((1R,5S)-3,8-diazabicyclo[3.2.1]octan-3-yl)-7-(2,3-dihydro-1H-inden-4-yl)-2-((tetrahydro-1H-pyrrolizin-7a(5H)-yl)methoxy)-5,6,7,8-tetrahydropyrido[3,4-d]pyrimidine] | 756
Brc1cc(N2CCc3c(nc(OCC45CCCN4CCC5)nc3N3C[C@H]4CC[C@@H](C3)N4)C2)c2ccccc2c1 [Example 111, 4-((1R,5S)-3,8-diazabicyclo[3.2.1]octan-3-yl)-7-(3-bromonaphthalen-1-yl)-2-((tetrahydro-1H-pyrrolizin-7a(5H)-yl)methoxy)-5,6,7,8-tetrahydropyrido[3,4-d]pyrimidine] | 1050
CN1CCC[C@H]1COc1nc2c(c(N3C[C@H]4CC[C@@H](C3)N4)n1)CCN(c1cccc3cc(O)cc(Cl)c13)C2 [Example 113, 5-(4-((1R,5S)-3,8-diazabicyclo[3.2.1]octan-3-yl)-2-(((S)-1-methylpyrrolidin-2-yl)methoxy)-5,6-dihydropyrido[3,4-d]pyrimidin-7(8H)-yl)-4-chloronaphthalen-2-ol] | 807
